The values below come from patent US5872015A, “Molecular diversity screening method” (Board of Trustees of the University of Illinois, priority 1996, dated 1999).

The target of data set [1] is T1, Calf intestinal adenosine deaminase (Bos taurus, UniProt P56658).
T1 sequence (P56658 1-363): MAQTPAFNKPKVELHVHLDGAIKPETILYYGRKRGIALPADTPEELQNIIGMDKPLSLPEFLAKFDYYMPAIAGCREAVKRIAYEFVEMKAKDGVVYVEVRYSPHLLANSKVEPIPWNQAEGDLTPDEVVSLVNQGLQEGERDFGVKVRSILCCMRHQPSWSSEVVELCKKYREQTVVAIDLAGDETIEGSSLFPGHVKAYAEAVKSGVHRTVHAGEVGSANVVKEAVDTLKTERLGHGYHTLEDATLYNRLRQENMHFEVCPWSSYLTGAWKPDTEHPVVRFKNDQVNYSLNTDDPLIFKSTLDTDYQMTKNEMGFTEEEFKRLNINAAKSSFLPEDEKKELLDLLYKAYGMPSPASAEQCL
Description: Selective identification of adenosine deaminase binders from a synthetic library of EHNA-type analogs (ultrafiltration, electrospray MS). It counts as binding. Conditions: for detected eluting from the device in the recovery phase: scan mode, positive ion electrospray MS, ADA 7.35 μM, approximately 10 nM each analog, pH 7.4, methanol/water 90:10; for presence of ion in the recovery phase in the presence of ADA / binding to ADA in the presence of a five-fold excess of EHNA: single ion monitoring mode; for presence of ion in the recovery phase in the presence of ADA: with ADA (FIG. 11B); for binding to ADA in the presence of a five-fold excess of EHNA: with ADA and five-fold excess of authentic EHNA (FIG. 11C).

The test system of the next data set is bovine serum albumin. Description: Extraction of pentachlorophenol by bovine serum albumin in the molecular diversity screening device (pulsed ultrafiltration, electrospray MS). It counts as binding. The protocol: The receptor concentration is chosen to be about 100 times the smallest dissociation constant being sought. […] The binding chamber is then washed with binding buffer (i.e., 100 Mm ammonium acetate at Ph 7.4) at 100 μL/min to wash out any low molecular weight impurities. The compound, in this case pentachlorophenol (equimolar or less with respect to the serum albumin in the binding chamber) is then injected into the binding chamber, and elution of pentachlorophenol is monitored using an appropriate detector such as UV absorbance or an electrospray mass spectrometer. An example of the extraction of pentachlorophenol from a binding buffer by bovine serum albumin is shown in FIG. 7 using electrospray mass spectrometric detection.
When pentachlorophenol is injected into the binding chamber without serum albumin present, an abundant peak is detected by the mass spectrometer as pentachlorophenol flows through the device unimpeded (FIG. 7, solid curve). […] Retention of pentachlorophenol in the binding chamber corresponds to tight binding to serum albumin under the predicted concentrations.

A further data set deals with serum albumin. Conditions: albumin-pentachlorophenol; read-out: dissociation constant; cited from earlier work.
Data set [2] deals with adenosine deaminase (ADA). The settings on record: cited from earlier work.
Data set [3] addresses T1, Calf intestinal adenosine deaminase. The protocol:
Calf intestinal adenosine deaminase (or another type of adenosine deaminase) is loaded into the molecular diversity screening device (equipped with a 10,000 molecular weight cutoff membrane) to a concentration of approximately 10 nM. A library of 20 adenosine analogs was prepared including the natural substrate for adenosine deaminase, adenosine (See list of compounds in Table 1).
Next, the adenosine analog library was mixed with adenosine deaminase (in a 1:1 molar ratio) in 33 mM ammonium acetate buffer at pH 7.4, and an aliquot was injected into the molecular diversity screening device to achieve a concentration of adenosine deaminase of approximately 10 nM. After flushing the binding chamber with water at 100 μL/min for 12 min, to wash out library compounds with low affinity for adenosine deaminase, methanol/water (50:50) was pumped through the chamber at 50 μL/min. The latter procedure should perturb binding of any remaining compounds bound to the adenosine deaminase and release them into the detector.

In data set [4] the test system is adenosine deaminase (ADA). The settings on record: EHNA 2×10^-8 M continuous influx; ADA 10^-7 M; 33 mM ammonium acetate; release by 25 μL MeOH, three cases.
Description: At about 10 min, 25 μL of MeOH is injected into the binding chamber resulting in an increase in EHNA--the first peak on the left. This signal is due to an enhanced sensitivity of the detector to EHNA in the presence of MeOH and/or due to release of non-specifically bound EHNA from the device and its parts. At about 40 min, the receptor ADA, in 33 mM ammonium acetate buffer, is introduced into the binding chamber until a receptor concentration of 10^-7 M is reached. […] At about 90 min, 25 μL of MeOH is again introduced to perturb binding and release of EHNA is observed. […] This process is repeated a third time at about 180 min. […] At about 230 min the ADA is removed from the binding chamber by opening the binding chamber wash port 9.

Take `CCCCCCCCCCC(C(C)O)n1cnc2c(N)ncnc21` (centres unmarked) [nC10 H21]: in data set [1], the “detected eluting from the device in the recovery phase” value (shortened to “detected eluting from the device”) was “detected”, the “presence of ion in the recovery phase in the presence of ADA” value (“presence of ion in the recovery phase” below) is “present” and the “binding to ADA in the presence of a five-fold excess of EHNA” value is “suppressed”.
For `Oc1c(Cl)c(Cl)c(Cl)c(Cl)c1Cl` [pentachlorophenol], the “extraction from the solution by the albumin receptor molecule” value in the data set with bovine serum albumin (100 mM ammonium acetate pH 7.4, unstirred 100 μL chamber, albumin approximately 1 μM) was “almost completely extracted”. Besides, the “pentachlorophenol detected by the mass spectrometer after injection with albumin loaded” value in the data set with bovine serum albumin (bovine serum albumin in chamber (FIG. 7, dashed curve)) is “only a trace”. In addition, the Kd with serum albumin is roughly 10 nM.
For `CCCCCCCCC(C(C)O)n1cnc2c(N)ncnc21` (centres unmarked) [nC7 H15], in data set [1], the “detected eluting from the device” value is reported as “detected”, the “presence of ion in the recovery phase” value is “present” and the “binding to ADA in the presence of a five-fold excess of EHNA” value is recorded as “suppressed”.
With `CC(C)CC(C(C)O)n1cnc2c(N)ncnc21` (centres unmarked) [isobutyl], in data set [1], the “detected eluting from the device” value is reported as “not detected” and the “presence of ion in the recovery phase” value is given as “did not appear”.
For the compound `CCCCCC[C@H]([C@H](C)O)n1cnc2c(N)ncnc21` (relative stereo) [EHNA, erythro-9-(2-hydroxy-3-nonyl)adenine], the Kd in data set [2] (read-out: dissociation constant, North, et al., 1979) is 7 nM. In data set [2] (read-out: inhibitor dissociation constant, potent inhibitor of adenosine deaminase, no source given), the Ki is 2 nM. The “detected eluting from the binding chamber on release with methanol/water (50:50)” value in data set [3] (ADA approximately 10 nM, 33 mM ammonium acetate pH 7.4, EHNA at 20-fold lower concentration than other compounds) was “detected”. The “affinity for adenosine deaminase within the library” value in data set [3] (library of 20 adenosine analogs) is “highest affinity”. Moreover, in data set [1], the “detected eluting from the device” value is “detected” and the “presence of ion in the recovery phase” value is “present”. In addition, the “binding to and release from ADA” value in data set [4] was “released after being bound to the ADA”.
Consider `CC(O)C(Cc1ccccc1)n1cnc2c(N)ncnc21` (centres unmarked) [benzylic], for which, in data set [1], the “detected eluting from the device” value is recorded as “not detected” and the “presence of ion in the recovery phase” value is listed as “did not appear”.
